Assay results taken from ChEMBL document CHEMBL4229350, “Antimicrobial activity and self-assembly behavior of antimicrobial peptide chensinin-1b with lipophilic alkyl tails” (Eur J Med Chem, 2018).
The source made the active and inactive calls. The calls are words filed in the database; no cut-off is given here.

How the values were obtained:
[1] = system: Staphylococcus aureus; assay: Antimicrobial activity against Staphylococcus aureus AS 1.72 assessed as induction of outer membrane permeabilization by measuring NPN uptake up to 50 uM by fluorescence assay; type: functional, organism-based
[2] = system: Escherichia coli; assay: Antimicrobial activity against Escherichia coli AS 1.349 assessed as induction of outer membrane permeabilization by measuring NPN uptake up to 50 uM by fluorescence assay; type: functional, organism-based

In the case of GENTAMICIN, the Activity [1] is reported as “Active” and the Activity [2] is reported as “Active”.
